Measurements: patent US11890285B2, “Combination therapies” (Mirati Therapeutics, Inc., priority 2019, dated 2024)
Several values for one entry are separate records, joined by “and”; a condition that tells them apart may be missing. Equal entries are not always repeated.

Assays:
[1] = tested on: CT26.WT KRas G12C E3 clone tumors; assay: Repeat study: tumor volumes of CT26.WT KRas G12C E3 clone tumor bearing mice, 10 animals per group; assay type: in vivo, BALBc mice; details: for Tumor volume: individual mice
Method: (§1) BALBc mice were inoculated in the right hind flank with 1×10^6 CT26.WT KRas G12C E3 cells harboring the KRas G12C mutation, and tumor volumes were measured using a caliper every two-three days and tumor volumes were calculated by the formula: […].
In the second study the number of treated mice was increased from 5 animals per group to 10 animals per group.
(§2) When tumor volumes reach between 200-400 mm^3 in size (Study Day 0), the mice were divided into four groups of 10 mice each. The first group was daily administered vehicle (10% Captisol in 50 mM citrate buffer pH 5.0) through Study Day 10 and also administered i.p. vehicle (BioXcel diluent) on Study Days 1, 4 and 7. The second group was daily administered a 10 mg/kg i.p. dose of the murine anti-PD-1 antibody (F26, BioXcel) at Days 1, 4 and 7.

[2] = tested on: CT26.WT KRas G12C E3 clone tumors; assay: Tumor volumes of CT26.WT KRas G12C E3 clone tumor bearing mice, single agents and combination; assay type: in vivo, BALBc mice
Method: as §1
as §2, with “volumes reached” for “volumes reach”, “of 5” for “of 10”, “Day 15” for “Day 10”
At Study Day 39, four tumor-free mice from the combination group were rechallenged 1×10^6 CT26.WT KRas G12C E3 cells in the opposite left flank and mice were monitored for tumor growth for a period of twenty four days to determine whether a durable, adaptive immune response was observed.

With C=C(F)C(=O)N1CCN(c2nc(OC[C@@H]3CCCN3C)nc3c2CCN(c2cccc4cccc(Cl)c24)C3)C[C@@H]1CC#N [Example 478] the “mice achieving a complete response” value ([1]; 10 mice per group) was “all ten treated mice achieving a complete response”, the “tumor regrowth / time without a detectable tumor” value ([1]; Example 478 stopped at Study Day 25) was “eventually tumor growth was detected in 6 out of 9 mice at the original site of implantation” and the Tumor volume ([1]; Study Day 14, original implantation site (R), Example 478 100 mg/kg, F26 10 mg/kg i.p., listed as Example 47) was 0 mm^3 (9×) and 4 mm^3. For the same molecule, the Tumor volume ([1]; Study Day 17, original implantation site (R), Example 478 100 mg/kg, F26 10 mg/kg i.p., listed as Example 47) was 0 mm^3 (8×) and 32 mm^3, the Tumor volume ([1]; Study Day 19, original implantation site (R), Example 478 100 mg/kg, F26 10 mg/kg i.p., listed as Example 47) was 51 mm^3 and 0 mm^3 (5×) and 875 mm^3 and 32 mm^3 and 371 mm^3 and 63 mm^3 and the Tumor volume ([1]; Study Day 21, original implantation site (R), Example 478 100 mg/kg, F26 10 mg/kg i.p., listed as Example 47) was 268 mm^3 and 0 mm^3 (5×) and 1320 mm^3 and 139 mm^3 and 762 mm^3 and 274 mm^3. The Tumor volume ([1]; Study Day 24, original implantation site (R), Example 478 100 mg/kg, F26 10 mg/kg i.p., listed as Example 47) was 877 mm^3 and 0 mm^3 (5×) and 2470 mm^3 and 588 mm^3 and 1498 mm^3 and 291 mm^3, the Tumor volume ([1]; Study Day 26, original implantation site (R), Example 478 100 mg/kg, F26 10 mg/kg i.p., listed as Example 47) was 1237 mm^3 and 0 mm^3 (4×) and 923 mm^3 and 1699 mm^3 and 14 mm^3 and the Tumor volume ([1]; Study Day 28, original implantation site (R), Example 478 100 mg/kg, F26 10 mg/kg i.p., listed as Example 47) was 1371 mm^3 and 0 mm^3 (4×) and 1056 mm^3 and 2035 mm^3 and 14 mm^3. For the same molecule, the Tumor volume ([1]; Study Day 31, original implantation site (R), Example 478 100 mg/kg, F26 10 mg/kg i.p., listed as Example 47) was 2334 mm^3 and 0R 0L mm^3 (4×) and 2113 mm^3 and 161 mm^3, the Tumor volume ([1]; Study Day 31, site of re-challenge (L)) was 0R 0L mm^3 and the Tumor volume ([1]; Study Day 33, original implantation site (R), Example 478 100 mg/kg, F26 10 mg/kg i.p., listed as Example 47) was 0R 0L mm^3 and 289 mm^3 and 63 mm^3 and 32 mm^3 and 4 mm^3. The Tumor volume ([1]; Study Day 33, site of re-challenge (L), listed as Example 47) was 0R 0L mm^3 and 0 mm^3 (3×), the Tumor volume ([1]; Study Day 38, original implantation site (R), Example 478 100 mg/kg, F26 10 mg/kg i.p., listed as Example 47) was 0R 0L mm^3 and 425 mm^3 and 318 mm^3 and 124 mm^3 and 63 mm^3 and the Tumor volume ([1]; Study Day 38, site of re-challenge (L), listed as Example 47) was 0R 0L mm^3 and 0 mm^3 (3×). The Tumor volume ([1]; Study Day 40, original implantation site (R), Example 478 100 mg/kg, F26 10 mg/kg i.p., listed as Example 47) was 0R 0L mm^3 and 464 mm^3 and 511 mm^3, the Tumor volume ([1]; Study Day 40, site of re-challenge (L), listed as Example 47) was 0R 0L mm^3 and 0 mm^3 (2×) and the “mice achieving a complete response” value ([2]; 5 mice per group) was “all five treated mice achieving a complete response after nine days of administration”. The “tumor regrowth / time without a detectable tumor” value ([2]; Example 478 stopped at Study Day 29) was “eventually tumor growth was detected at the original site of implantation in all five mice”.
